For experiment [1], the species on record is Rattus norvegicus. The experiment is described as follows: Activity at rat GABAA alpha-1-beta-2-gamma-2L receptor expressed in Xenopus laevis assessed as ratio of current in treated to non-treated oocyte at 0.1 uM by electrophysiology.
Experiment [2] is filed under the species Rattus norvegicus. The experiment is described as follows: Activity at rat GABAA alpha-1-beta-2-gamma-2L receptor expressed in Xenopus laevis expressed in assessed as ratio of current in treated to non-treated oocyte at 10 uM by electrophysiology.
A short description of experiment [3]: Displacement of […] from GABAA receptor in rat brain. In kind it is tissue-based. (In a radioligand displacement assay an active substance lowers the binding of a labelled ligand.)
The species entered for experiment [4] is Rattus norvegicus. The experiment in a line: Activity at rat GABAA alpha-1-beta-2-gamma-2L receptor expressed in Xenopus laevis assessed as ratio of current in drug-treated to GABA-treated oocyte at 10 uM by electrophysiology.
For experiment [5], the species on record is Rattus norvegicus. The experiment is described as follows: Activity at rat GABAA alpha-1-beta-2-gamma-2L receptor expressed in Xenopus laevis expressed in assessed as ratio of current in treated to non-treated oocyte at 1 uM by electrophysiology.
Experiment [6] has as its system Xenopus laevis. The experiment is described as follows: Anesthetic effect in Xenopus laevis assessed as loss of swimming response. The class given is functional, organism-based.
Experiment [7] has as its system Xenopus laevis. The experiment in a line: Anesthetic effect in Xenopus laevis assessed as loss of righting response. The class given is functional, organism-based.

Molecules are shown by their SMILES. Bounds are passed on as bounds.

As usually defined, the IC50 is the concentration needed to halve the response being measured. Broadly, the EC50 is the concentration at which the effect is half-maximal. On to `CC(=O)[C@H]1CC[C@H]2[C@@H]3CC[C@@H]4C[C@H](O)CC[C@]4(C)[C@H]3CC[C@]12C` [ELTANOLONE], for which the Ratio was determined as 1.2 in experiment [1], 9.77 in experiment [2], 0.06 in experiment [4] and 2.82 in experiment [5]. The molecule further registered an IC50 in experiment [3] of 71 nM. Moreover, the EC50 in experiment [6] was determined as 300 nM; in experiment [7], 60 nM.

As to `C[C@]12CC[C@@H](O)C[C@@H]1CC[C@@H]1[C@@H]2CC[C@]2(C)C(=O)CC[C@@H]12` [ANDROSTERONE], the Ratio is 0.97 in experiment [1], 5.44 in experiment [2], 0.02 in experiment [4] and 1.41 in experiment [5]. This molecule also showed an IC50 in experiment [3] of 410 nM. For the same molecule, in experiment [7], the EC50 came out at 3380 nM.

With `C[C@]12CC[C@@H](O)C[C@H]1CC[C@@H]1[C@@H]2CC[C@@]2(C)[C@H]1CC[C@@]21CO1`, the Ratio in experiment [1] is 1.28; in experiment [2], 25.4; in experiment [4], 0.03; in experiment [5], 5.17. In experiment [3], this molecule showed an IC50 of 220 nM. Further, the EC50 in experiment [6] was found to be 1730 nM; in experiment [7], 990 nM.

As for `C[C@@]12CC[C@H](O)C[C@@H]1CC[C@@H]1[C@@H]2CC[C@]2(C)[C@H]1CC[C@]21CO1`, the Ratio is 1.86 in experiment [1], 20.8 in experiment [2], 0.12 in experiment [4] and 10.5 in experiment [5]. In addition, the IC50 in experiment [3] worked out at 390 nM. The EC50 came out at 2760 nM in experiment [6] and 1730 nM in experiment [7].

Turning to `CC(=O)[C@@H]1CC[C@H]2[C@@H]3CC[C@@H]4C[C@@H](O)CC[C@@]4(C)[C@H]3CC[C@@]12C`, the Ratio in experiment [1] is 0.95; in experiment [2] it was 1.17; in experiment [4] it was 0.02; in experiment [5] it was 0.92. In experiment [3], this molecule came in with an IC50 of 1910 nM. Also, the EC50 in experiment [6] was above 5000 nM; in experiment [7], 970 nM.

`C[C@@]12CC[C@H](O)C[C@H]1CC[C@@H]1[C@@H]2CC[C@@]2(C)C(=O)CC[C@@H]12`: the Ratio turned out to be 1.27 in experiment [1], 18.9 in experiment [2], 0.03 in experiment [4] and 3.66 in experiment [5]. For the same molecule, the IC50 in experiment [3] was found to be 310 nM. For the same molecule, the EC50 in experiment [6] came to 5480 nM; in experiment [7] it was 1420 nM.

Consider `C[C@]12CC[C@@H](O)C[C@H]1CC[C@@H]1[C@@H]2CC[C@]2(C)C(=O)CC[C@@H]12` [ETIOCHOLANOLONE], for which the Ratio is 0.89 in experiment [1], 1.39 in experiment [2], 0 in experiment [4] and 0.87 in experiment [5]. Also, in experiment [3], the IC50 is 4150 nM.

Regarding `CC(=O)[C@@H]1CC[C@H]2[C@@H]3CC[C@H]4C[C@@H](O)CC[C@@]4(C)[C@H]3CC[C@@]12C`, the Ratio was 1.28 in experiment [1], 7.92 in experiment [2], 0.06 in experiment [4] and 2.82 in experiment [5]. In experiment [3], this molecule had an IC50 of 280 nM. Besides, the 50% effective concentration (EC50) was 890 nM in experiment [6] and 70 nM in experiment [7].

With `C[C@@]12CC[C@H](O)C[C@H]1CC[C@@H]1[C@@H]2CC[C@]2(C)[C@H]1CC[C@]21CO1`, the Ratio in experiment [1] stood at 2.62; in experiment [2], 26.3; in experiment [4] it was 0.1; in experiment [5], 15.9. For the same molecule, the 50% inhibitory concentration (IC50) in experiment [3] was 470 nM. The values for the EC50 in experiment [6] and in experiment [7] were 2710 nM and 1080 nM, respectively.

On to `C[C@@]12CC[C@H](O)C[C@@H]1CC[C@@H]1[C@@H]2CC[C@@]2(C)C(=O)CC[C@@H]12`, for which the Ratio in experiment [1] is 1.4; in experiment [2] it was 14.1; in experiment [4], 0.09; in experiment [5] it was 2.34. The molecule further showed a 50% inhibitory concentration (IC50) in experiment [3] of 380 nM. Further, the figures for the EC50 in experiment [6] and in experiment [7] were 8900 nM and 1970 nM, respectively.

On to `C[C@]12CC[C@@H](O)C[C@@H]1CC[C@@H]1[C@@H]2CC[C@@]2(C)[C@H]1CC[C@@]21CO1`, for which the Ratio stood at 3.11 in experiment [1], 33.7 in experiment [2], 0.22 in experiment [4] and 21.9 in experiment [5]. This molecule also registered an IC50 in experiment [3] of 110 nM. Further, the EC50 was 2760 nM in experiment [6] and 1350 nM in experiment [7].

Turning to `CC(=O)[C@H]1CC[C@H]2[C@@H]3CC[C@H]4C[C@H](O)CC[C@]4(C)[C@H]3CC[C@]12C` [BREXANOLONE], the Ratio in experiment [1] was 1.26; in experiment [2], 9.65; in experiment [4] it was 0.37; in experiment [5] it was 3.89. In addition, the IC50 in experiment [3] came to 74 nM. Besides, the EC50 is 5500 nM in experiment [6] and 420 nM in experiment [7].
